Source: US9527839B2, “Benzimidazole tetrahydropyran derivatives” (Merck Sharp & Dohme Corp., priority 2012, dated 2016)

How the values were obtained:
[1] = target: recombinant human AMPK complex 7 (containing α2β1γ1) (Homo sapiens (Human), UniProt P54646+Q9Y478); assay: In vitro AMPK activation assay (AMPKSAMSF), complex 7; format: biochemical; conditions: recombinant human AMPK complex 7 (α2β1γ1); for Emax: 10-point titration, read-out: % Maximum AMP Activation of human AMPK Complex 7
Experimental: (§1) The recombinant human AMPK complex 1 (containing α1β1γ1) or AMPK complex 7 (containing α2β1γ1) was obtained from baculovirus expression system. Recombinant viruses were generated by cotransfection of AMPK/pBacPak9 clones with Baculogold baculovirus DNA (Pharmingen) in spodoptera frugiperda 21 cells according to the manufacturer's instructions. Each round of virus amplification was performed for 5 days in Grace's medium containing 10% serum. Virus that had been subjected to three rounds of amplification was used for all protein production procedures. To express the AMPK complex, sf21 cells were adapted to serum free medium (SF900 II, Invitrogen) by sequential dilution from serum containing stocks into SF900II medium and maintained in shaker flasks at 90 rpm at 27° C. The recombinant AMPK enzyme complex was produced by triple infection, one recombinant virus for each of the subunits, in sf21 cells under serum free conditions. Cells were infected in log phase, 1×10^6 cells/ml, at a multiplicity of infection of 5. Cells were harvested by centrifugation at 10,000×g for 15 minutes after 72 hours of infection with viruses. The insect cell pellet from 2 liters of culture was resuspended in 50 ml lysis buffer (20 mM Tris-HCl, 50 mM NaCl, 50 mM NaF, 30 mM Na PPi, 0.25 M sucrose, 10 mM ZnCl2, 2 mM DTT, 0.4 mg/ml digitonin) and subjected to two cycles of freeze-thaw lysis in a dry-ice ethanol bath. Insoluble material was removed by centrifugation at 10,000×g and the supernatant was fractionated with use of polyethylene glycol (PEG). The protein fraction precipitating between 2.5 and 6% PEG was used for further purification using a Blue-Sepharose step (Zhou et al, J. Clin. Invest. 108, 1167-1174, 2001).
(§2) The in vitro AMPK activation assay is performed in a volume of 30 μl in a 384-well plate. Enzyme reactions were assembled in the microtiter plate by adding 15 μl of 2X enzyme in assay buffer (20 mM HEPES, pH 7.3, 5 mM MgCl2, 3 mM DTT, 0.01% Brij 35 and CamK Kinase, to activate AMPK) to wells which contained either DMSO or compound. The reaction was initiated with the addition of 15 μl 2× substrate mixture containing 200 μM ATP, and 3.0 μM fluorescently labeled SAMS (5-FAM-HMRSAMSGLHLVKRR-COOH) in assay buffer. After 45-minute incubation at 25° C., the reaction was stopped by the addition of 70 μl stop buffer (100 mM HEPES, pH 7.3, 40 mM EDTA, 0.015% Brij 35). Phosphorylated 5-FAM SAMS product is assessed using a Caliper EZ Reader LabChip microfluidics reader. Product conversion is determined by calculating the peak heights of the substrate and product and reporting the product/(product+substrate) peak ratio. The 10-point titration data were expressed as % maximum AMP activation. The results were plotted using 4 parameter fit and the inflection point reflecting 50% of the maximum activation was reported as the EC50.

[2] = target: recombinant human AMPK complex 1 (containing α1β1γ1) (Homo sapiens (Human), UniProt Q13131+Q9Y478); assay: In vitro AMPK activation assay (AMPKSAMSF), complex 1; format: biochemical; conditions: recombinant human AMPK complex 1 (α1β1γ1); for % Maximum AMP Activation of human AMPK Complex 1: 10-point titration
Sequence of recombinant human AMPK complex 1 (containing α1β1γ1) (Q13131 whole entry): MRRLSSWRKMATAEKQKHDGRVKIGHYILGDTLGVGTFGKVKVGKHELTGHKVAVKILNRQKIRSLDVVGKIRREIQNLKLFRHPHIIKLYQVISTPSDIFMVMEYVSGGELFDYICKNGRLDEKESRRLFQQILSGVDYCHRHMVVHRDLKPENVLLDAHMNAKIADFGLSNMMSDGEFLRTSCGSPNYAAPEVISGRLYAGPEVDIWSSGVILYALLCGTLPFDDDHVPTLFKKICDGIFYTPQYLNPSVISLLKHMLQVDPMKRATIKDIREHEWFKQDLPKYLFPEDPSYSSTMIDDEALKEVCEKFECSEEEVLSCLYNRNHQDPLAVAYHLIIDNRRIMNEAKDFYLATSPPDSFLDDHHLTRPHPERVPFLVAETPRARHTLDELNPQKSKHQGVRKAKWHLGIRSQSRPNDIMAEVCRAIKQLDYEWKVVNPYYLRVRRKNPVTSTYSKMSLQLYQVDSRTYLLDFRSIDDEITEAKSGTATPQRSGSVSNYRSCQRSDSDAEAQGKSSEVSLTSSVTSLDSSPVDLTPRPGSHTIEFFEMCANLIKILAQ
Sequence of recombinant human AMPK complex 1 (containing α1β1γ1) (Q9Y478 whole entry): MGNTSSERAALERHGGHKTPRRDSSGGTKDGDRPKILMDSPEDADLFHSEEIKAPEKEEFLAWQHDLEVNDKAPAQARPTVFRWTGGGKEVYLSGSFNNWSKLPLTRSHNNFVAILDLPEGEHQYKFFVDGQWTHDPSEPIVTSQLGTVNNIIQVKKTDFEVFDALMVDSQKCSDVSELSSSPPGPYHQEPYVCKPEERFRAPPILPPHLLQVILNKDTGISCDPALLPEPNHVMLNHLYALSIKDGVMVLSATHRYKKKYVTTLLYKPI
Sequence of recombinant human AMPK complex 1 (containing α1β1γ1) (P54619 whole entry partner): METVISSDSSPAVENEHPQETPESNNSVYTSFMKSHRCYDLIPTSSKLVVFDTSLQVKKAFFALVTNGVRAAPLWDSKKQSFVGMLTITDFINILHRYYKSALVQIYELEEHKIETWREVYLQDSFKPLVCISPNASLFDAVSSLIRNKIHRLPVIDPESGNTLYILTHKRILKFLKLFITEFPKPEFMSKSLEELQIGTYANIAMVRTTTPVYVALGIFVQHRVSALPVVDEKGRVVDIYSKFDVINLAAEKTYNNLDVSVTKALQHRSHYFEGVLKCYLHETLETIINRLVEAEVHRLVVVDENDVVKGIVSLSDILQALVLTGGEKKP
Experimental: as §1, §2

ob/ob and db/db mice = conditions: following 8 weeks of administration; cited from earlier work

Sequence of recombinant human AMPK complex 7 (containing α2β1γ1) (P54646 whole entry): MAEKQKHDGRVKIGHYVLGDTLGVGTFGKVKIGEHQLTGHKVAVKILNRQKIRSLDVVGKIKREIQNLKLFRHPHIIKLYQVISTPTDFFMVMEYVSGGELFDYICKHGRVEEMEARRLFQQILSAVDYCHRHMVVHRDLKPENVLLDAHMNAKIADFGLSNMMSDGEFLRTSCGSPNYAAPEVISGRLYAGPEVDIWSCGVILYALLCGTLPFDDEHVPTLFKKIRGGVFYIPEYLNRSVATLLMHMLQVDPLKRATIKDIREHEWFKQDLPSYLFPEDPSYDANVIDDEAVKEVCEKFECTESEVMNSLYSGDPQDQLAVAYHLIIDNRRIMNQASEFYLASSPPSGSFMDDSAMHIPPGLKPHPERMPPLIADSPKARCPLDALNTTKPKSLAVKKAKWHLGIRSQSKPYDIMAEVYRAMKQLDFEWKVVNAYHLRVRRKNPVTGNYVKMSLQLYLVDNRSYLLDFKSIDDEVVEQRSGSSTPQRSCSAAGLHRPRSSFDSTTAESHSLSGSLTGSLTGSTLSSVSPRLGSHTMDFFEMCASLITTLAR
Sequence of recombinant human AMPK complex 7 (containing α2β1γ1) (Q9Y478 whole entry): as the sequence (Q9Y478 whole entry) above
Sequence of recombinant human AMPK complex 7 (containing α2β1γ1) (P54619 whole entry partner): as the sequence (P54619 whole entry partner) above

Row | Compound | EC50 [1] | Emax [1] | EC50 [2] | % Maximum AMP Activation of human AMPK Complex 1 [2] | blood glucose reduction (ob/ob and db/db mice)
1 | N=c1nc(N)[nH]n1-c1ccc(-c2ccc(-c3cc4nc(O[C@H]5CO[C@H](CO)[C@@H](O)C5)[nH]c4cc3Cl)cc2)cc1 [Example 16] | 7 nM | 373% |  |  | 
2 | O=C1NCCC1c1ccc(-c2ccc(-c3cc4nc(O[C@H]5CO[C@H](CO)[C@@H](O)C5)[nH]c4cc3Cl)cc2)cc1 (stereo partly drawn) [Example 19] | 15 nM | 392% |  |  | 
3 | CS(=O)(=O)c1ccc(-c2ccc(-c3c(F)cc4[nH]c(O[C@H]5CO[C@H](CO)[C@@H](O)C5)nc4c3F)cc2)cc1 [Example 26] |  |  | 7 nM | 558% | 
4 | OC[C@H]1OC[C@H](Oc2nc3cc(-c4ccc(-c5ccc(-c6nccc(O)n6)cc5)cc4)c(Cl)cc3[nH]2)C[C@@H]1O [Example 6] | 7 nM | 373% |  |  | 
5 | CC(C)(O)c1ccc(-c2ccc(-c3c(F)cc4[nH]c(O[C@H]5CO[C@H](CO)[C@@H](O)C5)nc4c3F)cc2)cc1 [Example 29] |  |  | 26 nM | 492% | 
6 | OC[C@H]1OC[C@H](Oc2nc3cc(-c4ccc(-c5ccc(-n6cncn6)cc5)cc4)c(Cl)cc3[nH]2)C[C@@H]1O [Example 21] | 9 nM | 400% |  |  | 
7 | NC(=O)c1ncn([C@@H]2O[C@H](CO)[C@@H](O)[C@H]2O)c1N [AICAR] |  |  |  |  | 35%
8 | OC[C@H]1OC[C@H](Oc2nc3cc(-c4ccc(-c5ccc(C6CNCCO6)cc5)cc4)c(Cl)cc3[nH]2)C[C@@H]1O (stereo partly drawn) [Example 8] | 12 nM | 348% |  |  | 
9 | CC(CO)(CO)c1ccc(-c2ccc(-c3cc4nc(O[C@H]5CO[C@H](CO)[C@@H](O)C5)[nH]c4cc3Cl)cc2)cc1 [Example 7] | 6 nM | 333% |  |  | 
10 | O=S(=O)(c1ccc(-c2ccc(-c3cc4nc(O[C@H]5CO[C@H](CO)[C@@H](O)C5)[nH]c4cc3Cl)cc2)cc1)C1CCNCC1 [Example 18] | 14 nM | 364% |  |  | 
11 | CS(=O)(=O)Cc1ccc(-c2ccc(-c3cc4nc(O[C@H]5CO[C@H](CO)[C@@H](O)C5)[nH]c4cc3Cl)cc2)cc1 [Example 2] |  |  | 36 nM | 490% | 
12 | OC[C@H]1OC[C@H](Oc2nc3cc(-c4ccc(-c5ccc(-c6nnn[nH]6)cc5)cc4)c(Cl)cc3[nH]2)C[C@@H]1O [Example 23] | 18 nM | 387% |  |  | 

Continued, in another order:

Row | EC50 [1] | Emax [1] | Compound | EC50 [2] | % Maximum AMP Activation of human AMPK Complex 1 [2] | blood glucose reduction (ob/ob and db/db mice)
13 | 5 nM | 387% | N=c1nc(N)[nH]n1-c1ccc(-c2ccc(-c3c(F)cc4[nH]c(O[C@H]5CO[C@H](CO)[C@@H](O)C5)nc4c3F)cc2)cc1 [Example 40] |  |  | 
14 | 2 nM | 391% | OC[C@H]1OC[C@H](Oc2nc3c(F)c(-c4ccc(-c5ccc(-n6cncn6)cc5)cc4)c(F)cc3[nH]2)C[C@@H]1O [Example 45] |  |  | 
15 | 4 nM | 398% | O=C1NCCC1c1ccc(-c2ccc(-c3c(F)cc4[nH]c(O[C@H]5CO[C@H](CO)[C@@H](O)C5)nc4c3F)cc2)cc1 (stereo partly drawn) [Example 43] |  |  | 
16 | 3 nM | 370% | OC[C@H]1OC[C@H](Oc2nc3c(F)c(-c4ccc(-c5ccc(-c6nccc(O)n6)cc5)cc4)c(F)cc3[nH]2)C[C@@H]1O [Example 35] |  |  | 
17 | 13 nM | 192% | OC[C@H]1OC[C@H](Oc2nc3c(F)c(-c4ccc(-c5ccc(-c6nccs6)cc5)cc4)c(F)cc3[nH]2)C[C@@H]1O [Example 39] |  |  | 
18 | 9 nM | 419% | OC[C@H]1OC[C@H](Oc2nc3c(F)c(-c4ccc(-c5ccc(-c6nnn[nH]6)cc5)cc4)c(F)cc3[nH]2)C[C@@H]1O [Example 49] |  |  | 
19 | 8 nM | 401% | O=S(=O)(c1ccc(-c2ccc(-c3c(F)cc4[nH]c(O[C@H]5CO[C@H](CO)[C@@H](O)C5)nc4c3F)cc2)cc1)C1CCNCC1 [Example 42] |  |  | 
20 | 17 nM | 266% | OC[C@H]1OC[C@H](Oc2nc3c(F)c(-c4ccc(-c5ccc(-c6ncco6)cc5)cc4)c(F)cc3[nH]2)C[C@@H]1O [Example 38] |  |  | 
21 | 7 nM | 328% | OC[C@H]1OC[C@H](Oc2nc3c(F)c(-c4ccc(-c5ccc(-c6nnc(O)o6)cc5)cc4)c(F)cc3[nH]2)C[C@@H]1O [Example 47] |  |  | 
22 | 7 nM | 403% | CC(C)(O)Cc1cnn(-c2ccc(-c3ccc(-c4c(F)cc5[nH]c(O[C@H]6CO[C@H](CO)[C@@H](O)C6)nc5c4F)cc3)cc2)c1 [Example 50] |  |  | 
23 | 2 nM | 414% | CNC(=O)c1ccc(-c2ccc(-c3c(F)cc4[nH]c(O[C@H]5CO[C@H](CO)[C@@H](O)C5)nc4c3F)cc2)cc1 [Example 48] |  |  | 
24 | 18 nM | 360% | CC(C)(O)Cc1cnn(-c2ccc(-c3ccc(-c4cc5nc(O[C@H]6CO[C@H](CO)[C@@H](O)C6)[nH]c5cc4Cl)cc3)cc2)c1 [Example 24] |  |  | 
25 | 3 nM | 327% | OC[C@H]1OC[C@H](Oc2nc3c(F)c(-c4ccc(-c5ccc(C6CNCCO6)cc5)cc4)c(F)cc3[nH]2)C[C@@H]1O (stereo partly drawn) [Example 36] |  |  | 
26 | 11 nM | 426% | O=C(O)CCCc1ccc(-c2ccc(-c3c(F)cc4[nH]c(O[C@H]5CO[C@H](CO)[C@@H](O)C5)nc4c3F)cc2)cc1 [Example 44] |  |  | 
